The source of these data is patent publication US7361774B2, “Chalcone compound” (Takara Bio Inc., priority 2002, dated 2008).

For assay [1], the target named is T1, aldose reductase derived from human muscle cells (Homo sapiens, UniProt P15121).
T1 construct: purchased Wako Pure Chemical Industries
Briefly: Inhibitory activity for aldose reductase (NADPH absorbance at 340 nm, methylglyoxal substrate). Format: biochemical. As for the experimental part:
(1) Inhibitory activities for aldose reductase of the compounds a and b were measured by the following method. Twenty microliters of 100 mM methylglyoxal was added to 10 μl of the compound a or b (dissolved in a 50% aqueous dimethyl sulfoxide solution) as a sample, 100 μl of 0.2 M phosphate buffer (pH 6.2), 20 μl of 1 mM NADPH (phosphate buffer), 10 μl of a solution of aldose reductase derived from human muscle cells (0.1 U/ml, manufactured by Wako Pure Chemical Industries, phosphate buffer). After 30 seconds passed, change in absorbance of NADPH at 340 nm was determined for 180 seconds. A 50% aqueous dimethyl sulfoxide solution was used as a negative control in place of the sample. In addition, the absorbance was determined using distilled water as a blank of each sample in place of the methylglyoxal solution. The found values are expressed as an average of the values in two experimental values. The inhibitory ratio (%) for aldose reductase was calculated in accordance with the following formula. Inhibitory Ratio (%)=[1-[(ΔAs−ΔAsb)/(ΔAc−ΔAcb)]]×100
Here, ΔAs and ΔAc are changes in absorbance per 1 minute of a sample solution, and a negative control solution, respectively, and ΔAsb and ΔAcb are changes in absorbance per 1 minute of blank of a sample solution, and a negative control solution, respectively.

Assay [2] concerns RAW 264.7 cells. Briefly: Suppressive activity for NO production induced by LPS (NO2- in medium). The settings on record: compound a 1.5, 3, 6, 12 μM; compound b 3, 6, 12, 24 μM; LPS 15 hours. Format: cell-based. As for the experimental part:
RAW 264.7 cells (ATCC TIB 71) were suspended in Dulbecco's modified Eagle's medium (manufactured by Bio Whittaker, 12-604F) containing 10% fetal bovine serum (manufactured by GIBCO), so as to have a concentration of 4×10^5 cells/ml, and the suspension was put to each well of a 48-well microtiter plate in an amount of 500 μl per well. The cells were cultured at 37° C. in the presence of 5% carbon dioxide gas. After 24 hours, the medium was exchanged with Dulbecco's modified Eagle's medium (manufactured by Bio Whittaker, 12-917F) containing 10% fetal bovine serum (manufactured by GIBCO), 2 mM L-glutamine (manufactured by Life Tech Oriental Co., Ltd., 25030-149) without containing phenol red. The compound a (dimethyl sulfoxide solution) was added to each well so as to have a concentration of 1.5, 3, 6, or 12 μM, or the compound b (dimethyl sulfoxide solution) was added to each well so as to have a concentration of 3, 6, 12, or 24 μM. […] Thereafter, the concentration of NO2^− which was produced by oxidation of NO in the medium was determined. […] Thereafter, absorbance at 540 nm was determined. The concentration of NO2 − in the medium was calculated from a calibration curve prepared from known concentrations of NaNO2. […]

The subject of assay [3] is RAW 264.7 cells. Briefly: Suppressive activity for IL-6 production induced by LPS (sandwich enzyme immunoassay). It is filed as cell-based. The conditions noted are these: compound a 1.5, 3, 6, 12 μM; compound b 3, 6, 12, 24 μM; LPS 15 hours. As for the experimental part:
RAW 264.7 cells (ATCC TIB 71) were suspended in Dulbecco's modified Eagle's medium (manufactured by Bio Whittaker, 12-604F) containing 10% fetal bovine serum (manufactured by GIBCO) so as to have a concentration of 4×10^5 cells/ml, and the suspension was put to each well of a 48-well microtiter plate in an amount of 500 μl per well. The cells were cultured at 37° C. in the presence of 5% carbon dioxide gas. After 24 hours, the medium was exchanged with Ultra CHO medium (manufactured by Bio Whittaker, 12-724Q). The compound a (dimethyl sulfoxide solution) was added to each well so as to have a concentration of 1.5, 3, 6, or 12 μM, or the compound b (dimethyl sulfoxide solution) was added to each well so as to have a concentration of 3, 6, 12, or 24 μM. After additional 4 hours of culture, a 100 μg/ml aqueous lipopolysaccharide (LPS, manufactured by Sigma, L-2010) solution was added to each well in an amount of 5 μl per well, and the cells were cultured for 15 hours. Thereafter, the supernatant of the medium was collected. The content of interleukin 6 (IL-6) in the supernatant of the medium was determined with a sandwich enzyme immunoassay (manufactured by genzyme TECHNE, 4922). In addition, there were set a group without addition of the compounds a and b as a positive control, and a group without addition of LPS as a negative control. All of the determinations were carried out twice. […]

Assay [4] deals with PC12 cells (CRL-1721) derived from rat adrenal medulla pheochromocytoma, differentiated into neuron-like cells. The assay can be described thus: Neuronal protection from NO toxicity (SNP) in NGF-differentiated PC12 cells, MTT. It is filed as cell-based. The settings on record: 10 μM compound b, 50 μM SNP, 48 hours, control without compound and SNP = 100, SNP alone 59.1. The method, then:
(1) The suppressive activity for NO toxicity of the compound b was assayed in accordance with the following method. PC12 cells (CRL-1721) derived from rat adrenal medulla pheochromocytoma were suspended in DMEM medium (manufactured by Bio Whittaker) containing 10% fetal bovine serum (manufactured by Bio Whittaker) so as to have a concentration of 1×10^5 cells/ml. The suspension was put in each well of a 96-well plate in an amount of 0.1 ml per well, and the cells were cultured at 37° C. in the presence of 5% carbon dioxide gas. After the cells were cultured for 24 hours, the medium was removed and exchanged with DMEM medium containing 10 ng/ml of NGF (manufactured by TAKARA BIO Inc.) and 10% fetal bovine serum. PC12 cells were cultured for 3 days, and differentiated into neuron-like cells. After the culture, the medium was removed and exchanged with DMEM medium containing 10 μM of the compound b, 10 ng/ml of NGF, and 10% fetal bovine serum. […] Solubilized formazan was determined at a wavelength of 590 nm (control wavelength of 630 nm). […] Viability ratio (%) of cells was calculated from MTT found values of each test group by defining the MTT value of the control group (group not containing the compound b and SNP) as 100.

Assay [5] has as its system PC12 cells derived from rat adrenal medulla pheochromocytoma. Briefly: Suppressive activity for NO toxicity (SNP) in PC12 cells, MTT. It is filed as cell-based. The settings on record: 10 μM compound b, 50 μM SNP, 66 hours, control without compound and SNP = 100, SNP alone 48.1. The method, then: (2) The suppressive activity of the compound b for NO toxicity was assayed in accordance with the following method. PC12 cells derived from rat adrenal medulla pheochromocytoma were suspended in DMEM medium containing 10% fetal bovine serum so as to have a concentration of 1.5×10^5 cells/ml. The suspension was put to each well of a 96-well plate in an amount of 0.1 ml per well, and cultured at 37° C. in the presence of 5% carbon dioxide gas. After 24 hours of culture, the medium was removed, and exchanged with DMEM medium containing 10 μM of the compound b and 10% fetal bovine serum. After the cells were cultured for 2 hours, SNP was added thereto so as to have a concentration of 50 μM, and the cells were cultured for 66 hours. After the termination of the culture, the MTT determination was carried out in the same manner as in item (1) of Example 4, and the viability ratio (%) of cells was calculated. All of the determinations were carried out three times.

The structures appear in SMILES notation.

For `CC12CCC(O)C(C)(C)C1Cc1c(O)ccc(C(=O)/C=C/c3ccc(O)cc3)c1O2` (single isomer, unassigned) [Compound a, (E)-1-(5,6,7,8,8a,10a-hexahydro-1,7-dihydroxy-8,8,10a-trimethyl-9H-xanthen-4-yl)-3-(4-hydroxyphenyl)-2-propen-1-one], the “Inhibitory Ratio (%) for Aldose Reductase” value in assay [1] (final concentration 2.5 μM) was determined as 33.3%; in assay [1] (final concentration 5 μM) it was 48.4%; in assay [1] (final concentration 10 μM), 65.7%; in assay [1] (final concentration 20 μM), 77.2%. The “Suppression of induction for NO production by LPS (NO2- concentration in medium, FIG. 7)” value in the assay on RAW 264.7 cells [2] was “supppressed the induction for NO production by LPS in a concentration-dependent manner”. Moreover, in the assay with RAW 264.7 cells [3], the “Inhibition of induction of IL-6 production by LPS (IL-6 in supernatant, FIG. 8)” value is “inhibited the induction of IL-6 production by LPS in a concentration-dependent manner”.
For the compound `CC(C)=CCCC1(C)Oc2c(C(=O)/C=C/c3ccc(O)cc3)ccc(O)c2CC1O` (single isomer, unassigned) [Compound b, (E)-1-(3,4,-dihydro-3,5-dihydroxy-2-(3-isohexeneyl)-2-methyl-2H-1-benzopyran-8-yl)-3-(4-hydroxyphenyl)-2-propene-1-one], the “Inhibitory Ratio (%) for Aldose Reductase” value is given as 35.1% in assay [1] (final concentration 2.5 μM), 50.6% in assay [1] (final concentration 5 μM), 66.8% in assay [1] (final concentration 10 μM) and 79.1% in assay [1] (final concentration 20 μM). The “Viability Ratio (%) of Cells” value in assay [4] was 87.4%; in assay [5], 91.0%. The “Suppression of induction for NO production by LPS (NO2- concentration in medium, FIG. 7)” value with RAW 264.7 cells [2] was “supppressed the induction for NO production by LPS in a concentration-dependent manner”. The “Inhibition of induction of IL-6 production by LPS (IL-6 in supernatant, FIG. 8)” value in the assay with RAW 264.7 cells [3] was “inhibited the induction of IL-6 production by LPS in a concentration-dependent manner”.
